Experimental data reported in patent US9505781B2, “Compositions comprising thienopyrimidine and thienopyridine compounds and methods of use thereof” (The Regents of the University of Michigan, priority 2013, dated 2016).

Key:
[1] = system: non-MLL leukemia cell lines; test: Growth inhibition of non-MLL leukemia cell lines; assay type: cell-based; settings: FIG. 13 B
[2] = system: Hoxa9 and Meis 1; test: qRT-PCR of MLL fusion downstream targets; assay type: cell-based; settings: qRT-PCR in MLL-AF9 BMC, FIG. 10
From the text: FIG. 10. […] B. qRT-PCR performed in MLL-AF9 BMC for Compound 175.

[3] = system: MLL-AF9 BMC; test: Differentiation (CD11b expression, cell morphology); assay type: cell-based; settings: CD11b expression level and cell morphology, FIG. 9
[4] = target: T1, menin-MLL-AF9 interaction (Homo sapiens, UniProt O00255); test: Co-Immunoprecipitation (co-IP) in HEK293 cells transfected with MLL-AF9; assay type: cell-based; settings: HEK293 cells transfected with MLL-AF9, FIG. 2
T1 construct: performed in HEK293 cells transfected with MLL-AF9; endogenous in cells; host or cells: HEK293 cells (transfected with MLL-AF9)
T1 sequence (O00255 1-610): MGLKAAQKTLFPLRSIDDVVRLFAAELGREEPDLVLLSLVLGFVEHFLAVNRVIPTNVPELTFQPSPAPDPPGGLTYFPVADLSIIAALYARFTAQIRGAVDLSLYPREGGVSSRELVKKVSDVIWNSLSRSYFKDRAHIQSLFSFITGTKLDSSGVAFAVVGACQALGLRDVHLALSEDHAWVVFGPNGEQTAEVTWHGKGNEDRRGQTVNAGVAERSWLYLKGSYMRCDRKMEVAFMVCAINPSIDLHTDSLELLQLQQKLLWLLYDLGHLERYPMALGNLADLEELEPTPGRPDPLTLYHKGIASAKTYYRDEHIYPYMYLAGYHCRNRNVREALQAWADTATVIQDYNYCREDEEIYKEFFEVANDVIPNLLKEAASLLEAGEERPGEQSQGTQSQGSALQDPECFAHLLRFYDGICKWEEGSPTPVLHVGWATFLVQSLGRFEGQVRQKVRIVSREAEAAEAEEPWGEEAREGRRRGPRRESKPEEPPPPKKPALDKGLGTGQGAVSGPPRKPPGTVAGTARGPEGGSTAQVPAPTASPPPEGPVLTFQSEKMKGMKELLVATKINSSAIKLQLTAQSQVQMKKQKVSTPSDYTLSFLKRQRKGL

[5] = system: MLL-AF9 transformed BMC; test: Growth curves experiments in transformed BMC; assay type: cell-based; settings: MLL-AF9 BMC vs Hoxa9/Meis1 transformed BMC (negative control), FIG. 5
[6] = target: T2, menin-MLL interaction (Homo sapiens, UniProt O00255); test: biochemical
T2 sequence (O00255 1-610): T1 sequence (O00255 1-610)
From the text: Compounds that inhibit the interaction decrease the fluorescence anisotropy which is being used as a read-out for compound screening and for IC50 determination.

[7] = system: human MLL leukemia cell lines; test: Growth inhibition of human MLL leukemia cell lines; assay type: cell-based; settings: FIG. 13 A
[8] = system: MLL-AF9 leukemia; test: In vivo efficacy in mice model of MLL-AF9 leukemia; settings: once daily i.p. injections of 75 mg/kg dose, FIG. 18
From the text: FIG. 18. In vivo efficacy studies with compound 108 in mice model of MLL-AF9 leukemia.

[9] = system: MLL-AF9 BMC; test: Colony formation assay; assay type: cell-based; settings: each round 7 days, FIG. 7
From the text: FIG. 7. […] Each round takes 7 days.

[10] = system: MLL-AF9 transformed mouse bone marrow cells (BMC); test: MTT cell viability assay in transformed BMC; assay type: cell-based; settings: 72 h incubation, E2H-HLF transformed BMC as negative control, FIG. 3
[11] = system: human MLL leukemia cell lines; test: MTT cell viability assay in human leukemia cell lines; assay type: cell-based; settings: 3 days of incubation, FIG. 11

Row | SMILES | IC50 [6] [nM] | other results
1 | N#Cc1cc2cc(CN3CCC(Nc4ncnc5sc(CC(F)(F)F)cc45)CC3)ccc2[nH]1 [Compound 175, 5-((4-((6-(2,2,2-trifluoroethyl)thieno[2,3-d]pyrimidin-4-yl)amino)piperidin-1-yl)methyl)-1H-indole-2-carbonitrile] | < 100 | growth inhibition [1]: limited effect; expression of Hoxa9 and Meis 1 [2]: downregulate expression of downstream targets of MLL fusion proteins; differentiation [3]: Differentiation induced; inhibition of the menin-MLL-AF9 interaction [4]: inhibition of the menin-MLL-AF9 interaction; selectivity in growth curves [5]: great selectivity of the compound towards MLL fusion protein transformed cells; growth inhibition [7]: selectively inhibits growth of human MLL leukemia cell lines
2 | FC(F)(F)Cc1cc2c(NC3CCN(Cc4ccccc4)CC3)ncnc2s1 [Compound 108] | 100 to 500 | survival of leukemic mice [8]: Increase in survival of leukemic mice; expression of Hoxa9 and Meis 1 [2]: downregulate expression of downstream targets of MLL fusion proteins; morphology of colonies [9]: changes morphology of colonies; inhibition of proliferation [10]: selectively inhibit proliferation of MLL leukemia cells; inhibition of the menin-MLL-AF9 interaction [4]: inhibition of the menin-MLL-AF9 interaction; growth inhibition [11]: selectively inhibit growth of human MLL leukemia cell lines
3 | CC1(C)CN=C(N2CCN(c3ncnc4sc(CC(F)(F)F)cc34)CC2)S1 [Compound 1, 4-(4-(5,5-dimethyl-4,5-dihydrothiazol-2-yl)piperazin-1-yl)-6-(2,2,2-trifluoroethyl)thieno[2,3-d]pyrimidine] |  | expression of Hoxa9 and Meis 1 [2]: downregulate expression of downstream targets of MLL fusion proteins; inhibition of proliferation [10]: selectively inhibit proliferation of MLL leukemia cells; inhibition of the menin-MLL-AF9 interaction [4]: inhibition of the menin-MLL-AF9 interaction
4 | Cc1c(CN2CCC(Nc3ncnc4sc(CC(F)(F)F)cc34)CC2)ccc2c1cc(C#N)n2CCN1CCN(C(=O)CCC2CCCCC2)CC1 [Compound 339] | < 100 | 
5 | Cc1cc(CN2CCC(Nc3ncnc4sc(CC(F)(F)F)cc34)CC2)cc2cc(C#N)[nH]c12 [Compound 410] | 100 to 500 | 
6 | FC(F)(F)Cc1cc2c(N3CCN(C4CCCCC4)CC3)ncnc2s1 [Compound 11] | 100 to 500 | 
7 | Cc1c(CN2CCC(Nc3ncnc4sc(CC(F)(F)F)cc34)CC2)ccc2c1cc(C#N)n2Cc1cc(Cc2ccncc2)[nH]n1 [Compound 345] | < 100 | 
8 | CCOc1c(CN2CCC(Nc3ncnc4sc(CC(F)(F)F)cc34)CC2)ccc2[nH]c(C#N)cc12 [Compound 244] | 100 to 500 | 
9 | N#CCn1c(C#N)cc2cc(CN3CCC(Nc4ncnc5sc(CC(F)(F)F)cc45)CC3)ccc21 [Compound 197] | < 100 | 
10 | Cc1cc(Cn2c(C#N)cc3c(C)c(CN4CCC(Nc5ncnc6sc(CC(F)(F)F)cc56)CC4)ccc32)[nH]n1 [Compound 365] | < 100 | 
11 | N#Cc1cc2cc(CN3CCC(N(CCN4CCOCC4)c4ncnc5sc(CC(F)(F)F)cc45)CC3)ccc2[nH]1 [Compound 238] | 100 to 500 | 

Further lines, with some results ahead:

Row | IC50 [6] [nM] | SMILES | other results
12 | 100 to 500 | FC(F)(F)Cc1cc2c(NC3CCN(Cc4c[nH]c5ccccc45)CC3)ncnc2s1 [Compound 243] | 
13 | < 100 | Cc1c(CN2CCC(Nc3ncnc4sc(CC(F)(F)F)cc34)CC2)ccc2c1cc(C#N)n2CCS(C)(=O)=O [Compound 354] | 
14 | 100 to 500 | NS(=O)(=O)Cc1ccc(CC(=O)N2CCN(c3ncnc4sc(CC(F)(F)F)cc34)CC2)c(F)c1 [Compound 78] | 
15 | 500 to 2000 | NS(=O)(=O)Cc1ccc(CC(=O)N2C[C@@H]3CC[C@H]2CN3c2ncnc3sc(CC(F)(F)F)cc23)cc1 [Compound 97] | 
16 | < 100 | C=C(Br)Cn1c(C#N)cc2cc(CN3CCC(Nc4ncnc5sc(CC(F)(F)F)cc45)CC3)ccc21 [Compound 306] | 
17 | < 100 | CNC(=O)Cn1c(C#N)cc2cc(CN3CCC(Nc4ncnc5sc(CC(F)(F)F)cc45)CC3)ccc21 [Compound 212] | 
18 | 100 to 500 | CC1(C)CN=C(C2C[C@@H]3C[C@H]2CN3c2ncnc3sc(CC(F)(F)F)cc23)S1 (mixture of isomers) [Compound 14] | 
19 | 500 to 2000 | FC(F)(F)Cc1cc2c(NC3CCN(Cc4ccc(C(F)(F)F)cc4)CC3)ncnc2s1 [Compound 146] | 
